Experimental data reported in patent US20240139280A1, “USE OF HIF-1-ALPHA INHIBITORS IN CANCER IMMUNOTHERAPY” (ONCOC4, INC., priority 2021, published 2024).

Legend:
[1] = tested on: PD-L1 expression in E0771 cells; format: cell-based, murine
[2] = tested on: core HRE motif EGFP reporter in 4T1-HRE-EGFP cells; format: cell-based, murine
[3] = tested on: intestinal tissues; assay: Ipilimumab-induced GI-irAE in human CTLA4 knockin mice (FITC-dextran, histology, PD-L1); conditions: Ipilimumab 0.1 mg/mouse/injection; echinomycin 10 μg/kg added to Ipilimumab
Method: (§1) Experimental design for GI-irAE induction by Ipilimumab, with or without additional therapies. 10-day old CTLA4h/h mice received 0.1 mg of Ipilimumab on days 10, 13, 16, and 19 after birth to induce the GI-irAE phenotype, measured by FITC-dextran assay on day 32. On day 33, the mice were sacrificed for histological and immunofluorescent analysis of intestinal tissues, and flow cytometry, etc. […] Aggregate data from 4 experiments are presented. […] Starting on day 10 after birth, the mice began receiving treatment with vehicle (n=33), echinomycin (n=27), Ipilimumab (n=33), Ipilimumab+echinomycin (n=26), Ipilimumab+RMP1-14 (n=27), Ipilimumab+echinomycin+RMP1-14 (n=28), or Ipilimumab+echinomycin+XMG1.2 (n=15). Echinomycin (10 μg/kg), Ipilimumab (0.1 mg/mouse/injection), RMP1-14 (0.2 mg/mouse/injection), and XMG1.2 (0.2 mg/mouse/injection). Vehicle or echinomycin (10 μg/kg) were given once every three days for 8 doses, and mAbs (0.1 mg/mo. for Ipilimumab; 0.2 mg/mo. for RMP1-14 and XMG1.2) once every three days for 4 doses. Data collection was performed as described in (FIG. 8A). […] Serum FITC-dextran intensity shown as mean±SEM for individual mice pooled from 3 independent experiments. […] Statistics were determined by unpaired t tests (two-tailed) for group means. […] Representative H&E images from intestines of Ipilimumab-treated mice additionally treated with echinomycin (panel i), RMP1-14 (panels ii-iv), echinomycin+RMP1-14 (panels v-vi), or echinomycin+XMG1.2 (panels vii-viii). […] Representative immunofluorescence images showing relative expression of PD-L1 in jejunum of mice from different treatment groups.
(§2) Therefore, we used intestinal permeability to orally administrated FITC-dextran and histology as the readout for irAE (FIG. 8A).

[4] = tested on: intestinal tissues; conditions: in vivo
Method: as §1, §2

Compound: [Cl-].[Cl-].[Co+2] [CoCl2]
- PD-L1 expression [1]: further upregulated PD-L1
- EGFP reporter fluorescence activity [2]: marked increase in EGFP reporter fluorescence activity

Compound: Ipilimumab: Recombinant anti-CTLA-4 antibody Ipilimumab provided by Lakepharma Inc.
- PD-L1 expression in the intestines [3]: elevated PD-L1 expression
- intestinal inflammation / pathology (histological analysis) [4]: induced intestinal inflammation
